{"source": "patent US11578054B2", "about": "“Compounds useful as immunomodulators” (Bristol-Myers Squibb Company, priority 2018, dated 2023)", "target": "PD-1/PD-L1 (Homo sapiens (Human), UniProt Q9NZQ7)", "sequence (Q9NZQ7 other isoform, or with tags, fused parts or gaps)": "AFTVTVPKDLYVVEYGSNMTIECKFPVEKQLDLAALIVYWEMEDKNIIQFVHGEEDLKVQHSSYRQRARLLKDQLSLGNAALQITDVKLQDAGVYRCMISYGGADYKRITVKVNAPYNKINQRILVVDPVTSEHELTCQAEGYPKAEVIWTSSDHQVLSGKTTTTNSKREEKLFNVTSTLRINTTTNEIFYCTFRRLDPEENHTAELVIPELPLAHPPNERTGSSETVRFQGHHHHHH", "test": "PD-1/PD-L1 Homogenous Time-Resolved Fluorescence (HTRF) binding assay", "conditions": "PD-L1-His 10 nM, PD-1-Ig 20 nM", "excerpt": "The ability of the compounds of formula (I) to bind to PD-L1 was investigated using a PD-1/PD-L1 Homogenous Time-Resolved Fluorescence (HTRF) binding assay.\nHomogenous Time-Resolved Fluorescence (HTRF) binding assay.\nThe interaction of PD-1 and PD-L1 can be assessed using soluble, purified preparations of the extracellular domains of the two proteins. The PD-1 and PD-L1 protein extracellular domains were expressed as fusion proteins with detection tags, for PD-1, the tag was the Fc portion of Immunoglobulin (PD-1-Ig) and for PD-L1 it was the 6 histidine motif (PD-L1-His). All binding studies were performed in an HTRF assay buffer consisting of dPBS supplemented with 0.1% […] bovine serum albumin and 0.05% (v/v) Tween-20. For the h/PD-L1-His binding assay, inhibitors were pre-incubated with PD-L1-His (10 nM final) for 15m in 4 μl of assay buffer, followed by addition of PD-1-Ig (20 nM final) in 1 µl of assay buffer and further incubation for 15m. HTRF detection was achieved using europium crypate-labeled anti-Ig (1 nM final) and allophycocyanin (APC) labeled anti-His (20 nM final). Antibodies were diluted in HTRF detection buffer and 5 μl was dispensed on top of the binding reaction. The reaction mixture was allowed to equilibrate for 30 minutes and the resulting signal (665 nm/620 nm ratio) was obtained using an EnVision fluorometer. Additional binding assays were established between the human proteins PD-1-Ig/PD-L2-His (20 & 5 nM, respectively) and CD8O-His/PD-L1-Ig (100 & 10 nM, respectively).\nRecombinant Proteins: Human PD-1 (25-167) with a C-terminal human Fc domain of immunoglobulin G (Ig) epitope tag [hPD-1 (25-167)-3S-IG] and human PD-L1 (18-239) with a C-terminal His epitope tag [hPD-L1(18-239)-TVMV-His] were expressed in HEK293T cells and purified sequentially by ProteinA affinity chromatography and size exclusion chromatography. Human PD-L2-His and CD8O-His was obtained through commercial sources.\nThe table below lists the IC50 values for representative examples of this disclosure measured in the PD-1/PD-L1 Homogenous Time-Resolved Fluorescence (HTRF) binding assay.", "data": [{"smiles": "N#Cc1cncc(COc2cc(OC3CCc4c(-c5cccc(OCCCNC[C@H](O)CO)c5Cl)cccc43)c(Cl)cc2CN[C@@H](CCO)C(=O)O)c1", "note": "(stereo partly drawn) [Example 1021, (5-Chloro-4-((4-(2-chloro-3-(3-(((S)-2,3-dihydroxypropyl)amino)propoxy)phenyl)-2,3-dihydro-1H-inden-1-yl)oxy)-2-((5-cyanopyridin-3-yl)methoxy)benzyl)-L-homoserine]", "values": [{"measurement": "IC50", "result": 1, "unit": "nM"}]}]}
